# Patent US5795882A, “Method of treating prostatic diseases using delayed and/or sustained release vitamin D formulations” (Bone Care International, Inc., priority 1996, dated 1998)
# Key:
# leukemia cells = settings: by inducing differentiation to nonmalignant macrophages; cited from earlier work
# Vitamin D Receptor = molecular target: T1, Vitamin D Receptor (Homo sapiens, UniProt P11473); test: VDR competitive binding assay (Examples 6-8); settings: in words; Examples 7 and 8 versus the vitamin form
# T1 sequence (P11473 1-427): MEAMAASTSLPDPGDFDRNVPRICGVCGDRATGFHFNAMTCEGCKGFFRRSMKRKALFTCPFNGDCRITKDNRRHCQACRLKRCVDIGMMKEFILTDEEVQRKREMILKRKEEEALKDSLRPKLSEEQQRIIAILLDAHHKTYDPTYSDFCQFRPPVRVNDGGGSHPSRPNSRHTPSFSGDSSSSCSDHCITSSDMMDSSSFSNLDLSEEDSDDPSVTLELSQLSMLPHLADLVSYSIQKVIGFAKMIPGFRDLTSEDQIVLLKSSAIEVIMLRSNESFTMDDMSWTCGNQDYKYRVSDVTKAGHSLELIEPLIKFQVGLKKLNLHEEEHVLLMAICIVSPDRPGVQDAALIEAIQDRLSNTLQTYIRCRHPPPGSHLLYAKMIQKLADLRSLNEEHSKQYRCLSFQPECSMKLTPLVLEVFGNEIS
# malignant cells = settings: cited from earlier work
# [1] = Comparison of oral bioavailability in rachitic rats (Example 5); format: in vivo, rat; settings: rat, in vivo, 0.0015 mg/kg, 12 h after single oral dose 0.255 μg (approximately 1.5 μg/kg) in fractionated coconut oil, n=6, ± SD, ** p < 0.01 relative to 1α,25(OH)2 D3, read-out: Serum 1α,25-(OH)2 D3
# Description: Three-week-old rats were maintained on a vitamin D-deficient diet containing normal levels of calcium and phosphorus for 3-6 weeks until marked hypocalcemia was observed. […] A control group received only the vehicle. For all treatment groups, blood was obtained at 12 hours postdosing, and analyzed for serum levels of the vitamin form.
# [2] = in vivo; cited from earlier work
# [3] = test system: prostate cancer cell lines; settings: cited from earlier work
# LNCaP [4] = test: Inhibition of prostate cell proliferation, LNCaP; format: cell-based, human; settings: 10^-11 to 10^-7 M, 6-7 days
# Description: (§1) The cell lines, LNCaP and PC-3, which are derived from human prostate adenocarcinoma, are seeded in six-well tissue culture plates at a density of about 50,000 cells/plate. After the cells have attached and stabilized, about 2-3 days, the medium is replenished with medium containing vehicle or the active vitamin D analogue, 1α,24-(OH)2 D2, at concentrations from 10^-11 to 10^-7 M. Medium containing test analogue or vehicle is replaced every three days. After 6-7 days, the medium is removed, and the cells are rinsed, precipitated with cold 5% trichloroacetic acid, and washed with cold ethanol. The cells are solubilized with 0.2N sodium hydroxide, and the amount of DNA determined by standard procedures.
# (§2) The procedure of Example 19 is repeated using the active vitamin D analogue 1α,24-(OH)2 D4, and the cell number is determined.
# (§3) The procedure of Example 19 is repeated using the active vitamin D analogue 1α,25-(OH)2 D4, and the cell number is determined.
# PC-3 = test: Inhibition of prostate cell proliferation, PC-3; format: cell-based, human; settings: PC-3, 10^-11 to 10^-7 M, 6-7 days
# Description: as §1, §2, §3
# prostate VDR = molecular target: T2, prostate VDR (Homo sapiens, UniProt P11473); test: Prostate cell VDR binding; settings: 0.01-100 nM versus 1 nM 3H-1α,25-(OH)2 D3, 16-20 hrs, 4° C.
# T2 sequence (P11473 1-427): T1 sequence (P11473 1-427)
# Description: Prostate-derived cell lines are cultured to near confluence, washed and harvested by scraping. Cells are washed by centrifugation, and the cell pellet resuspended in a buffered salt solution containing protease inhibitors. The cells are disrupted by sonication while cooling on ice. The supernatant obtained from centrifuging the disrupted cells at 207,000×g for 35 min at 4° C. is assayed for binding. 200 μL of soluble extract, (1-2 mg protein/ml supernatant) is incubated with a 1 nM ^3 H-1α,25-(OH)2 D3 and increasing concentrations of 1α,24-(OH)2 -D2 (0.01-100 nM) for 16-20 hrs at 4° C. Bound and free hormones are separated with hydroxylapatite using standard procedures. Specific binding is calculated by subtracting nonspecific binding obtained in the presence of a 250-fold excess of nonradioactive 1α,25-(OH)2 D3 from the total binding measured.
# The procedure of Example 16 is repeated using the active vitamin D analogue 1α,24-dihydroxyvitamin D4, and the specific binding is determined.
# The procedure of Example 16 is repeated using the active vitamin D analogue 1α,25-dihydroxyvitamin D4, and the specific binding is determined.
# LNCaP [5] = test: Stimulation of prostate cell differentiation (PSA), LNCaP; format: cell-based, human; settings: 10^-11 to 10^-7 M, 6-7 days
# Description: Using the techniques of Skowronski et al., 132 Endocrinology (1993) 1952-1960 and 136 Endocrinology (1995) 20-26, both of which are incorporated herein by reference, cells of the cell line, LNCaP, which is derived from a human metastatic prostate adenocarcinoma and known to express PSA, are seeded in six-well tissue culture plates at a density of about 50,000 cells/plate. After the cells have attached and stabilized, about 2-3 days, the medium is replenished with medium containing vehicle or the active vitamin D analogue, 1α,24-(OH)2 D2, at concentrations from 10^-11 to 10^-7 M. After 6-7 days, the medium is removed and stored at -20° C. for prostate specific antigen (PSA) analysis.
# The cells are rinsed, precipitated, and the amount of DNA determined by standard procedures. The cells are resuspended, and the cell number determined. PSA is measured by standard known methods.
# The procedure of Example 22 is repeated except the active vitamin D analogue is 1α,24-(OH)2 D4.
# The procedure of Example 22 is repeated except the active vitamin D analogue is 1α,25-(OH)2 D4.
# luteinizing hormone (LH) = settings: cited from earlier work
# [6] = In vitro thermal conversion of 1α-hydroxyprevitamin D to 1α-hydroxyvitamin D; format: physicochemical; settings: in ethanol, 37° C.
# Description: A series of experiments were conducted which address the in vitro conversion of previtamin to vitamin for three 1α-hydroxyprevitamin D's: 1α-hydroxyprevitamin D2, 1α,24-dihydroxyprevitamin D2 and 1α-hydroxyprevitamin D3. Each 1α-hydroxyprevitamin D was dissolved in ethanol, incubated at 37° C. in a water bath, and samples taken at two-hour intervals. An analytical HPLC separation was performed on each sample to quantify the thermal conversion of the previtamin to the vitamin form. The data collected were normalized to account for the presence of any vitamin form in the initial formulation (≤10%). The results are presented in FIG. 1 which is a plot of % previtamin versus time in hours. Linear regression lines were generated for each previtamin.
# [7] = test system: advanced androgen-independent prostate cancer; test: Clinical study in advanced androgen-independent prostate cancer; format: in vivo, human; settings: for progression of metastatic disease (CAT scans, x-rays, bone scans): two years
# Description: Patients with advanced androgen-independent prostate cancer participate in an open-labeled study of 1α,24-(OH)2 preD2. […] On admission to the study , patients begin a course of therapy with oral 1α,24-(OH)2 preD2 lasting 26 weeks, while discontinuing any previous use of calcium supplements, vitamin D supplements, and vitamin D hormone replacement therapies. During treatment, the patients are monitored at regular intervals for: (1) hypercalcemia, hyperphosphatemia, hypercalciuria, hyperphosphaturia and other toxicity; (2) evidence of changes in the progression of metastatic disease; and (3) compliance with the prescribed test drug dosage.
# The study is conducted in two phases. During the first phase, the maximal tolerated dosage (MTD) of daily oral 1α,24-(OH)2 preD2 is determined by administering progressively higher dosages to successive groups of patients. All doses are administered in the morning before breakfast. The first group of patients is treated with 25 μg of 1α,24-(OH)2 preD2. Subsequent groups of patients are treated with 50, 75 and 100 μg/day. Dosing is continued uninterrupted for the duration of the study unless serum calcium exceeds 11.6 mg/dL or other toxicity of grade 3 or 4 is observed, in which case dosing is held in abeyance until resolution of the observed toxic effect(s) and then resumed at a level which has been decreased by 10.0 μg.
# During the second phase, patients are treated with 1α,24-(OH)2 preD2 for 24 months at 0.5 and 1.0 times the MTD.
# The study of Example 25 is repeated for the active vitamin D compound, 1α,25-(OH)2 D2 in DSR form.
# [8] = Oral bioavailability of 1α,24-(OH)2 preD2 in normal rats (Example 2); format: in vivo, rat
# Description: In this experiment, normal rats maintained on a normal diet were assigned randomly to treatment and control groups. The rats were orally administered single doses of 1α,24-(OH)2 preD2 in a fractionated coconut oil (FCO) (1.5 μg, which was approximately 7.5 μg/kg). The control group received only the vehicle. For both groups, blood was obtained at 6 hours postdosing and analyzed for serum levels of the vitamin form, 1α,24-dihydroxyvitamin D2.
smiles,measurement,setting,value
"C=C1/C(=C\C=C2/CCC[C@]3(C)[C@@H]([C@H](C)CCCC(C)C)CC[C@@H]23)C[C@@H](O)C[C@@H]1O [1α-(OH)D3, 1α-hydroxyvitamin D3]",antileukemic activity,leukemia cells,potent antileukemic activity
"CC1=C(/C=C\C2=CCC[C@]3(C)[C@@H]([C@H](C)CCC(C)(O)C(C)C)CC[C@@H]23)C[C@@H](O)C[C@@H]1O (stereo partly drawn) [1α,24-(OH)2 preD4, 1α,24-dihydroxyprevitamin D4]",VDR binding affinity,Vitamin D Receptor,substantially less affinity for the receptor than does its vitamin form
"C=C1/C(=C\C=C2/CCC[C@]3(C)[C@@H]([C@H](C)CCCC(C)(C)O)CC[C@@H]23)C[C@@H](O)C[C@@H]1O [1α,25-(OH)2 D3, 1α,25-dihydroxyvitamin D3]",growth and differentiation of malignant cells,malignant cells,regulate growth and promote the differentiation of many malignant cells
same,antileukemic activity,leukemia cells,potent antileukemic activity
same,concentration at 12 h,[1],0.327 ± 0.192 ng/mL
same,risk of hypercalcemia limiting clinical use as anti-cancer agent,[2],"precluded, or severely limited, by the risk of hypercalcemia"
same,antiproliferative and differentiating actions,[3],Antiproliferative and differentiating actions
"C=C1/C(=C\C=C2/CCC[C@]3(C)[C@@H]([C@H](C)CCC(C)(O)C(C)C)CC[C@@H]23)C[C@@H](O)C[C@@H]1O (stereo partly drawn) [1α,24-(OH)2 D4, 1α,24-dihydroxyvitamin D4]",number of cells versus control cultures,LNCaP [4],significantly fewer cells than the control cultures
same,number of cells versus control cultures,PC-3,significantly fewer cells than the control cultures
same,affinity for prostate VDR,prostate VDR,strong affinity for prostate VDR
same,PSA (mass of PSA/cell) versus control cultures,LNCaP [5],significantly more PSA than control cultures
CC/C(=C(/CC)c1ccc(O)cc1)c1ccc(O)cc1 [diethylstilbestrol],cardiovascular profile,luteinizing hormone (LH); in vivo,poor cardiovascular profile
same,inhibition of the release of luteinizing hormone from the pituitary gland,luteinizing hormone (LH); in vivo,potent inhibitors of the release from the pituitary gland of luteinizing hormone
same,dose achieving maximum suppression of plasma testosterone,luteinizing hormone (LH); men,3 mg/day
"C=C1/C(=C\C=C2/CCC[C@]3(C)[C@@H]([C@H](C)CC[C@H](C)C(C)(C)O)CC[C@@H]23)C[C@@H](O)C[C@@H]1O [1α,25-(OH)2 D4, 1α,25-dihydroxyvitamin D4]",number of cells versus control cultures,LNCaP [4],significantly fewer cells than the control cultures
same,number of cells versus control cultures,PC-3,significantly fewer cells than the control cultures
same,affinity for prostate VDR,prostate VDR,strong affinity for prostate VDR
same,PSA (mass of PSA/cell) versus control cultures,LNCaP [5],significantly more PSA than control cultures
"CC1=C(/C=C\C2=CCC[C@]3(C)[C@@H]([C@H](C)/C=C/[C@H](C)C(C)C)CC[C@@H]23)C[C@@H](O)C[C@@H]1O [1α-(OH)preD2, 1α-hydroxyprevitamin D2]",half-life,[6],774 min
"CC1=C(/C=C\C2=CCC[C@]3(C)[C@@H]([C@H](C)/C=C/C(C)(O)C(C)C)CC[C@@H]23)C[C@@H](O)C[C@@H]1O (stereo partly drawn) [1α,24-(OH)2 preD2, 1α,24-dihydroxyprevitamin D2]",bone pain associated with metastatic disease,[7]; patients treated with the MTD for at least six months,significantly diminished
same,"circulating levels of 1α,25-(OH)2 D3","[7]; patients, daily oral","suppressed, often to undetectable levels"
same,"levels of circulating 1α,24-(OH)2 D2 versus dosage","[7]; patients, daily oral",increase proportionately with the dosage administered
same,serum and urine calcium,"[7]; patients, daily oral",elevated in a dose responsive manner
same,maximal tolerated dosage (MTD),"[7]; patients, daily oral, first phase",above 20.0 μg/day
same,"progression of metastatic disease (CAT scans, x-rays, bone scans)",[7]; higher dosage (1.0 times the MTD),partial or complete remission
same,"progression of metastatic disease (CAT scans, x-rays, bone scans)",[7]; lower dosage (0.5 times the MTD),stable disease or partial remission
same,VDR binding affinity,Vitamin D Receptor,substantially less affinity for the receptor than does its vitamin form
same,half-life,[6],732 min
same,"oral bioavailability (increased circulating 1α,24-(OH)2 D2)",[8],bioavailable
"C=C1/C(=C\C=C2/CCC[C@]3(C)[C@@H]([C@H](C)/C=C/C(C)(O)C(C)C)CC[C@@H]23)C[C@@H](O)C[C@@H]1O (stereo partly drawn) [1α,24-(OH)2 D2, 1α,24-dihydroxyvitamin D2]",number of cells versus control cultures,LNCaP [4],significantly fewer cells than the control cultures
same,number of cells versus control cultures,PC-3,significantly fewer cells than the control cultures
same,affinity for prostate VDR,prostate VDR,strong affinity for prostate VDR
same,PSA (mass of PSA/cell) versus control cultures,LNCaP [5],significantly more PSA than control cultures
